# Measured values as given in patent publication US7148243B2, “Antivirals” (Medivir AB, priority 1998, dated 2006).
# “And” between values parts separate entries of the source, which are not always exact repeats. Equal entries are not always repeated. Where two headings read alike, the source gives them in different places.
# Tests used:
# [1] = tested on: HIV; settings: after only four weeks of therapy, virus isolated from patient serum; cited from earlier work
# [2] = for plasma level of mother compound: 0.027 mmol/kg
# Experimental: The rats used in pharmacokinetic examples were male Sprague-Dawley, with a weight about 200–250 g. The rats were fasted for at least 16 hours before the experiment, but had free access to water. The day before the experiment the rats were anaesthetized using a mixture of Efrane®, laughing gas and oxygen. A catheter was introduced into the vena jugularis. On the day of the experiment the weights of the rats were noted. The animals were shortly anaesthesized before the oral dose was given or the iv dose injected into the back of the neck. Each substance was administered to duplicate rats.
# Compounds were dissolved in DMSO for intravenous administration.
# The blood samples were centrifuged infectious agents neutralised with 1% SDS/64°/20 min and plasma stored at −20° C.
# Plasma samples are prepared as follows: 40–100 μl of plasma is mixed with an equal volume of acetonitrile (10 seconds, Vibrofex). The sample is centrifuged (2 min, 14000 RPM) and 30 μl of the supernantant is injected into an HPLC system, as follows.
# The vehicle was 10% acacia and 1% Tween in water or propylene glycol (asterisked).
# [3] = tested on: HIV-1 IIIB; test: Time to resistance, weekly passage in MT4 cells (Biological Example 2); assay type: cell-based; settings: growth of viral resistance against time, FIG. 1, versus closest Santa Fe compound
# Experimental: 2×10^4 MT4 cells per well in a microtitre plate are infected with 5–10 TCID50 of HIV-1 IIIB. The compounds being tested are added at concentrations around ED50 using 8 duplicates per concentration. After 6 days of incubation the RT activity in 10 μl supernatent is measured.
# The following procedure is followed at subsequent passages of the cultures once per week.: Virus produced at the concentration of test compound showing >50% of the RT activity of untreated infected cells (SIC, Starting Inhibitory Concentration) are passaged to fresh MT4 cells. 15 μl supernatent from each of the eight duplicates are transferred to cells without the test compound (control) and to cells with test compound at the same concentration, and additionally two respectively fivefold higher concentrations. (See Table 2 below)
# When viral growth is permitted at the highest non-toxic concentration (5–40 μM), 2–4 parallel wells are collected and expanded to give material for sequence analysis and cross-wise resistance.
# FIG. 1 plots the growth of viral resistance for a compound of the invention (Example 8) against time. Also plotted is the corresponding curve for the closest Santa Fe compound, mentioned above.
# [4] = biological target: T1, HIV reverse transcriptase (Human immunodeficiency virus type 1 group M subtype B, UniProt P04585); test: Binding kinetics by surface plasmon resonance (Biological Example 10); settings: dissociation phase, 25° C., FIG. 3, versus prior art Santa Fe compound
# T1 construct: made in house
# From the text: The rate of association and dissociation of an NNRTI on the target enzyme can be directly assayed by surface plasmon resonance methodology, wherein reverse transcriptase is immobilized on the surface of a chip and the binding or dissociation of the putative inhibitor is monitored by observing the changes in refractive index caused by the concomitant increase or decrease in chip mass. A compound of the invention (Example 8) was compared to the closest prior art compound from Santa Fe, as depicted above. Experiments were performed on a BIACORE® 2000 (Biacore AB, Uppsala, Sweden), using BIAEVALUATION® software (ver 3.0) for evaluation of data. The binding of the small analyte (NNRTI) to the much larger enzyme results in binding responses in the range of 10–20 RU. […] During the dissociation phase there is insignificant change in bulk refractive index, thus the binding of the different substances have been evaluated during this phase. […]
# Interaction with inhibitors: Stock solutions of inhibitors (1 mg/ml in DMSO) were dissolved in RT running buffer (10 mM Hepes pH 7.6; 4 mM MgCl2; 0.25 mM spermine; 40 mM KCl; 0.5% TRITON® X-100; 3% DMSO; 0.5% fetal calf serum) to a concentration of […]. Binding of substance to the RT was analysed by injection of […] of the diluted substance, the flow rate was […] and the temperature 25° C. […]
# [5] = Bioavailability in different species, plasma level of mother compound (Biological Example 7); assay type: in vivo; settings: rat, Example 12 0.026 mmol/kg, acacia/Tween
# Experimental: Each substance was administered to duplicate rats.
# (§1) A prodrug of the invention of Formula II (Example 12) was administered at the same dose (0.026 mmol/kg) and in the same vehicle (10% acacia and 1% Tween in water) to rats and cynomolgus monkeys. Plasma levels of the mother compound of Formula I (Example 10) was measured as a function of time.
# The corresponding data for the compound of Example 28 (rat: acacia/Tween, monkey:propylene glycol) are shown in Table 5A: […]
# [6] = as above; assay type: in vivo, cynomolgus monkeys; settings: monkey, Example 12 0.026 mmol/kg, acacia/Tween
# Experimental: Monkeys were fasted for 12 hours prior to oral administration but had free access to water. The test compound was delivered via an infant nasogastric feeding tube. After 6 hours the monkeys received an apple.
# as §1
# [7] = Release of mother compound from orally administered prodrug, plasma level (Biological Example 4); assay type: in vivo, Sprague Dawley rats; settings: oral Example 7 0.027 mmol/kg in propylene glycol, released Example 6 assayed
# Experimental: The release of a compound of Formula I from an orally administered prodrug of Formula II was monitored in rats. The compound of Example 7 was made up in a propylene glycol vehicle and orally administered to paired fasted male Sprague Dawley rats at a dose corresponding to 0.027 mmol/kg. At the indicated time intervals, 0.2 ml blood was collected from a catheter implanted in the […] jugularis, centrifuged and frozen for later analysis. The released drug of Formula I (Example 6) was assayed by HPLC.
compound,measurement,setting,value
Cc1ccnc2c1NC(=O)c1cccnc1N2C1CC1 [nevirapine],loss of sensitivity of patient virus to the drug versus virus from untreated patients,[1],100 fold
"CCC(=O)c1ccc(F)c([C@@H]2C[C@@H]2NC(=O)Nc2ccc(C#N)cn2)c1OCOC(=O)c1ccc(O)cc1 (relative stereo) [Example 37, (1S, 2S)-N-[cis-2-(6-fluoro-2-O-3-propionylphenyl)-cyclopropyl]-N′-[2-(5-cyanopyridyl)]urea-O-methylene-4-hydroxybenzoate]",plasma level of mother compound,"[2]; propylene glycol (asterisked), 30 min",234 ng/mL and 137 ng/mL
same,plasma level of mother compound,"[2]; propylene glycol, 60 min",273 ng/mL and 189 ng/mL
same,plasma level of mother compound,"[2]; propylene glycol, 120 min",111 ng/mL and 133 ng/mL
same,plasma level of mother compound,"[2]; propylene glycol, 240 min",56 ng/mL and 45 ng/mL
same,plasma level of mother compound,"[2]; propylene glycol, 360 min",54 ng/mL and 56 ng/mL
same,absolute oral bioavailability,"[2]; determined relative to the iv dose, rats",28–33%
"CCC(=O)c1ccc(F)c([C@@H]2C[C@@H]2NC(=O)Nc2ccc(C#N)cn2)c1O (stereo in doubt) [Example 8, (1 S,2S)-N-(cis-2-(6-fluoro-2-hydroxy-3-propionoylphenyl)-cyclopropyl)-N′-(5-cyanopyrid-2-yl)-urea]",rate of resistance development,[3],significantly slower rate of resistance development
same,dissociation rate from reverse transcriptase,[4],dissociating with the lowest rate
"CCC(=O)c1ccc(F)c([C@@H]2C[C@@H]2NC(=O)Nc2ccc(Br)cn2)c1OC(=O)c1cccc(N)c1 (relative stereo) [Example 12, (1S, 2S)-N-[cis-2-(2-(3-aminophenylcarbonyloxy)-6-fluoro-3-propionylphenyl)cyclopropyl]-N′-(5-bromopyrid-2-yl)-urea]",plasma level of mother compound,"[5]; 30 min, mother compound Example 10",90 ng/mL and 50 ng/mL
same,plasma level of mother compound,[5]; 60 min,100 ng/mL and 70 ng/mL
same,plasma level of mother compound,[5]; 120 min,90 ng/mL and 80 ng/mL
same,plasma level of mother compound,[5]; 180 min,80 ng/mL
same,plasma level of mother compound,[5]; 240 min,60 ng/mL and 50 ng/mL
same,plasma level of mother compound,"[6]; 45 min, mother compound Example 10",80 ng/mL and 40 ng/mL
same,plasma level of mother compound,[6]; 90 min,200 ng/mL and 260 ng/mL
same,plasma level of mother compound,[6]; 180 min,1000 ng/mL and 550 ng/mL
same,plasma level of mother compound,[6]; 240 min,720 ng/mL and 540 ng/mL
same,plasma level of mother compound,[6]; 360 min,380 ng/mL and 390 ng/mL
same,plasma level of mother compound,[6]; 600 min,130 ng/mL and 100 ng/mL
same,plasma level of mother compound,[6]; 24 h,30 ng/mL
"CCC(=O)c1ccc(F)c([C@H]2C[C@H]2NC(=O)Nc2ccc(C#N)cn2)c1OC(=O)c1cccc(N)c1 (relative stereo) [Example 7, (1R, 2R)-N-[cis-2-(2-(3-aminophenylcarbonyloxy)-6-fluoro-3-propionylphenyl)-cyclopropyl]-N′-(5-cyanopyrid-2-yl)-urea]",plasma level of mother compound,"[7]; 30 min, individual rats",240 ng/mL and 350 ng/mL
same,plasma level of mother compound,[7]; 60 min,180 ng/mL and 280 ng/mL
same,plasma level of mother compound,[7]; 120 min,130 ng/mL and 170 ng/mL
same,plasma level of mother compound,[7]; 240 min,70 ng/mL and 120 ng/mL
same,plasma level of mother compound,[7]; 360 min,50 ng/mL and 70 ng/mL
